Patent US20240009168A1 (Cognition Therapeutics, Inc., priority 2020, published 2024)

Legend:
retinal ganglion cells [1] = assay: In vivo model of glaucoma: pattern electroretinogram (PERG); settings: p<0.05 (FIGS. 9A and 9B)
Source text: FIGS. 9A and 9B depict quantification of electrical activity in retinal ganglion cells in an in vivo model of glaucoma in the presence or absence of sigma-2 receptor modulator.
(§1) In vivo models of glaucoma (Shah, M., et al., “Translational Preclinical Pharmacologic Disease Models for Opthalmic Drug Development,” Development. Pharm. Res. 36(4): 58 (2019); which is hereby incorporated by reference in its entirety) were used to test the utility of sigma-2 receptor modulators.
Glaucoma can cause perturbations in the electrical activity of the retina. To measure the electrical activity, a pattern electroretinogram (PERG) measure electrical activity of the retina in response to a test stimulus, such as a reversing checkerboard. PERG is a noninvasive, direct, and objective method to assess retinal ganglion cell function. An in vivo model of glaucoma causes a functional deficit in retinal ganglion cells (injured vs. naïve), resembling what is seen in patients with glaucoma and other retinal diseases.

RPE cell cultures [2] = assay: Autophagy assays: POS trafficking, colocalization of POS with LC3B; type: cell-based
Protocol: FIGS. 2A and 2B depict photoreceptor outer segment trafficking after treatment with Abeta oligomers in the presence or absence of sigma 2 receptor modulators (FIG. 2A=Compound A and Compound C; FIG. 2B=Compound B).
FIGS. 3A and 3B depict photoreceptor outer segment trafficking after treatment with an oxidative stressor in the presence or absence of sigma 2 receptor modulators (FIG. 3A=Compound A and Compound C; FIG. 3B=Compound B).
Autophagy Assays: Autophagy assays were performed in accordance with Klionsky et al., “Guidelines for the Use and Interpretation of Assays for Monitoring Autophagy,” (4th edition) Autophagy 2021; 17:1-382, which is hereby incorporated by reference in its entirety. RPE cultures were treated with human oligomeric Aβ in either the presence or absence of compounds of the invention. POS trafficking was measured over time after the addition of POS to RPE cell cultures. Stressors included addition of Aβ oligomers or H2O2 for 12 to 48 hours. […] This process was disrupted by addition of stressors such as Aβ oligomers (FIGS. 2A and 2B) or oxidative stress (FIGS. 3A and 3B).

sigma-2 receptors = target: T1, sigma-2 receptors (Mus musculus, UniProt Q8VD00); assay: Drug concentration in plasma, brain and retina; type: in vivo
T1 sequence (Q8VD00 1-176): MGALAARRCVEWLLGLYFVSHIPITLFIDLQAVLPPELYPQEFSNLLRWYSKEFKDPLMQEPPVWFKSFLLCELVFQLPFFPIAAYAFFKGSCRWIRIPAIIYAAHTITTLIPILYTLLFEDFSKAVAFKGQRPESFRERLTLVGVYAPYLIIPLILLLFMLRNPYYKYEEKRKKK
Protocol: FIG. 6 depicts quantification of the concentration of the sigma-2 receptor modulator Compound A in mouse plasma, brain, and retina.
FIG. 7 depicts quantification of the concentration of the sigma-2 receptor modulator, Compound B, in mouse plasma, brain and retina.
Following a single oral administration of [14C]-Compound A to a rat, autoradiography was performed to determine tissue distribution. […] Receptor occupancy exceeding 80% confers efficacy in vivo. Drug concentration in the brain (cerebellum), retina, and plasma were also measured. […] Similarly, following a single orally administered dose, Compound B was found in concentrations that exceeded 80% receptor occupancy at sigma-2 receptors in the retina and plasma and approximately 50% occupancy in the brain (FIG. 7).

RPE cell cultures [3] = assay: Quantification of an autophagy related protein after oxidative stressor; type: cell-based; settings: after oxidative stressor (FIG. 4)
Source text: FIG. 4 depicts quantification of an autophagy-related protein after oxidative stress by an oxidative stressor in the presence or absence of sigma-2 receptor modulators.
Oxidative stressors are associated with pathology in AMD with changes seen in autophagy associated proteins. Application of an oxidative stressor caused increased expression of an autophagy related protein acutely (FIG. 4).

retinal ganglion cells [4] = assay: In vivo model of glaucoma: retinal ganglion cell counts; settings: p<0.05 (FIG. 8)
Source text: FIG. 8 depicts quantification of retinal ganglion cell density in an in vivo model of glaucoma in the presence or absence of sigma-2 receptor modulator.
as §1
To test whether sigma-2 receptor modulators can rescue cell death, in vivo models were used to cause cell death of retinal ganglion cells, resembling what is seen in patients with glaucoma and other retinal diseases.

[5] = oxidative stress, H2O2 (FIGS. 3A and 3B)
[6] = stressor Aβ oligomers (FIGS. 2A and 2B)

Row | Compound | retinal ganglion cell function (PERG electrical activity) (retinal ganglion cells [1]) | POS trafficking into autophagosomes (colocalization of POS with LC3B) (RPE cell cultures [2]; [5]) | POS trafficking into autophagosomes (colocalization of POS with LC3B) (RPE cell cultures [2]; [6]) | concentration in the retina relative to brain (cerebellum) and plasma (sigma-2 receptors; mouse (FIG. 6)) | expression of an autophagy related protein (RPE cell cultures [3]) | occupancy at sigma-2 receptors in the brain (sigma-2 receptors; mouse (FIG. 7), single orally administered dose) | retinal ganglion cell counts (retinal ganglion cells [4])
1 | CC(C)(C)Oc1cc(CCC(C)(C)N2Cc3ccc(S(C)(=O)=O)cc3C2)ccc1O [Compound A] | preserves retinal ganglion cell function | restored normal trafficking into autophagosomes after stress | restored normal trafficking into autophagosomes after stress | higher than the concentration in the brain or plasma | prevented the increase in this autophagy related protein | – | –
2 | CC(C)=C[C@@H](CC(C)(C)c1ccc(C(F)(F)F)cc1)N1CCC(C2CCOCC2)CC1 [Compound C] | – | restored normal trafficking into autophagosomes after stress | restored normal trafficking into autophagosomes after stress | – | prevented the increase in this autophagy related protein | – | –
3 | CC1(O)CCN(CCC(C)(C)c2ccc(C(F)(F)F)cc2)CC1 [Compound B] | – | – | – | – | – | approximately 50% | significantly preserved retinal ganglion cells counts
